Measurements published in patent EP0802730B1, “PESTICIDAL COMPOUNDS” (BTG INTERNATIONAL LIMITED, priority 1995, dated 1996).
≈ marks a conversion by molar mass, not a printed value. Read-outs that look alike come from different tables or passages of the source.

How the values were obtained:
[1] = test system: Houseflies (MD) (Musca domestica); type: in vivo; details: for MD LD50 (µg/insect): Tables 10, 13, 14, NA = lack of detectable activity; for MD (LD50): topical 1 µl drop in acetone on female flies, kill assessed 24 and 48 hours
Method: Female flies were treated on the thorax with a one microlitre drop of test compound dissolved in acetone. Two replicates of 15 flies were used at each dose rate and 6 dose rates were used per compound under test. After treatment, the flies were maintained at a temperature of 20° ± 1°C and kill was assessed 24 and 48 hours after treatment. LD50 values were calculated in micrograms of test compound per fly (see Sawicki et al., Bulletin of the World Health Organisation, 35, 893 (1966) and Sawicki et al., Entomologia and Exp. Appli 10, 253, (1967).

[2] = test system: Mites (TU) (Tetranychus urticae), susceptible strain (GSS); assay: Mite immersion test, susceptible strain GSS; type: in vivo
Method: (§1) 25 adult female mites were immersed in 35 µl of a solution of the test compound in a 1:4 acetone-water mixture for 30 seconds. The treated insects were maintained at 21° ± 2°C and kill was assessed 72 hours after treatment. […] Three replicates of 25 mites each were used at each dose rate and 5 or 6 dose rates were used per compound under test. LC50 values were calculated in ppm of the solution of the test compound per insect. The test was carried out using a susceptible strain of mites (GSS) supplied by Schering, AG, Berlin.

[3] = test system: Myzus persicae, susceptible strain (US1L); assay: Aphid dip test, susceptible strain; type: in vivo
Method: Activity against resistant (R) and susceptible (S) strains of aphid (Myzus persicae) was assessed using the following method.
Entrapment rings of fluon were painted halfway up the inside of 4 cm lengths of glass tubing (1.5 cm diameter), and squares of insect-proof gauze were attached to one end of each tube by elastic bands. Fifteen apterous adults were then gently transferred into the tubes using a sable-hair brush, and the tube sealed with a second gauze square.
Tubes containing aphids were dipped into insecticide solutions for 10 seconds, dried on blotting paper, and then inverted and tapped to cause treated aphids to fall to the unimmersed end of each tube. Handling mortality (usually zero or very slight) was scored after 1 hour, when aphids were transferred onto chinese cabbage leaf-discs (35 mm diameter) on an agar bed (25 mm in depth) in disposible plastic containers (30 mm high) and confined by applying a ring of fluon to the exposed lip of the container. Containers were store upright, without lids, in a constant environment facility maintained at 25°C under continuous room lighting. Mortality was assessed at 24, 48 and 72 hours. Two replicates of 15 aphids each were used at each dose rate and 5 or 6 dose rates were used per compound under test.
The test was carried out using a susceptible strain of aphids (US1L) collected in the field in East Anglia, UK and an extremely resistant strain of aphids (794Jz) (R3 esterase, sensitive AChE) collected from glasshouses in the UK.
The values given are % mortality corrected for control data. The control comprised the test solution without active ingredient.

[4] = test system: Mustard beetles (PC) (Phaedon cochleariae Fab); type: in vivo; details: NA = lack of detectable activity; for PC LD50 (µg/insect): Tables 10, 13, 14; for PC (LD50): 1 µl acetone drop applied ventrally to adults, kill at 48 hours
Method: A one microlitre drop of an acetone solution of the test compound was applied ventrally to adult mustard beetles using a micro drop applicator. The treated insects were maintained for 48 hours after which time kill was assessed. Two replicates each of 20 to 25 mustard beetles were used at each dose level and 5 dose levels were treated comparably. LD50 values were calculated as for houseflies.

[5] = test system: Whitefly (BT) (Bemisia tabaci), susceptible strain (SUD-S); assay: Whitefly residual film vial test, susceptible strain SUD-S; type: in vivo
Method: Acetone solutions (0.100 ml) of the test compounds were placed in 10 ml glass vials and evaporated with rotation to deposit a film of the compound. Thirty adult whiteflies were placed inside the vial, then after 60 minutes, the treated insects were transferred onto untreated cotton leaf discs which were kept moist on a bed of agar gel. The temperature was maintained at 25°C and mortality assessed after 48 hours. Three replicates were used at each of 5 to 7 dose levels per compound.

Rhizoctonia solani = assay: Fungitoxicity in vitro on potato dextrose agar; type: cell-based; details: R. solani, 4 days
[6] = test system: Pyricularia oryzae (=Magnaporthe grisea); type: cell-based; details: P. oryzae, 7 days
Aspergillus niger = assay: Fungitoxicity in vitro on potato dextrose agar; type: cell-based; details: A. niger, 4 days
[7] = test system: resistant mites (TU) (Tetranychus urticae), NYR-Bif-1000; assay: Mite immersion test, bifenthrin-resistant strain; type: in vivo; details: 72 h, read-out: TU (NYR-Bif-1000) (LC50)
Method: as §1
The test of Example 16 (TU(GSS)) was repeated using a strain of mites which is resistant to bifenthrin (NYR-Bif-1000). The NYR-Bif-1000 strain was provided by the Department of Entomology, Cornell University, New York.

[8] = test system: Diamond-back moth (PX) (Plutella xylostella); assay: Diamond-back moth larvae topical test (failure to pupate); type: in vivo; details: fifth instar larvae, 0.5 µl drop; failure to pupate 5 days later
Method: Fifth instar larvae were treated with a 0.5 µl drop of test compound in acetone. Three replicates of 10 larvae each were used at each dose rate and 5 dose rates were used per compound under test. After treatment, the larvae were maintained at about 22°C, and kill was assessed as failure to pupate 5 days later. LD50 values were calculated as for houseflies.

[9] = 72 h, Tables 10, 13, 14, susceptible strain, NA = lack of detectable activity, read-out: TU LC50 (ppm/insect)
[10] = 48 h, Tables 10, 13, 14, susceptible strain, NA = lack of detectable activity, read-out: BT LC50 (ppm/insect)
[11] = ppm solution of test compound, 30 seconds immersion, kill at 72 hours, read-out: TU(GSS) (LC50)
[12] = strain S, 100 PPM, read-out: % mortality corrected for control data
[13] = strain S, read-out: % mortality corrected for control data
[14] = ppm solution of test compound, 60 minutes film exposure, mortality after 48 hours, read-out: BT(SUD-S) (LC50)

Compound	MD LD50 (µg/insect) [1]	LC50 [2, 9]	mortality at 100 ppm ([3]; read-out: MP % kill 100 ppm)	PC LD50 (µg/insect) [4]	LC50 [5, 10]	further results
CCCCCCC1=C(O)C(=O)c2ccccc2C1=O [-(CH2)5CH3, reference compound]	c20 µg/insect	170 µg/mL (≈ 658 µM)	0%	c7 µg/insect	9.4 µg/mL (≈ 36.4 µM)	
COC(=O)Nc1nc2ccccc2[nH]1 [Carbendazim, carbendazim, reference compound]						% inhibition of growth in colony diameter in agar plates, Activity at 1 mg 1^-1 (Rhizoctonia solani; 1 mg 1^-1): 3.3%; % inhibition of growth in colony diameter in agar plates, Activity at 5 mg 1^-1 (Rhizoctonia solani; 5 mg 1^-1): 82.4%; % inhibition of growth in colony diameter in agar plates, Activity at 1 mg 1^-1 ([6]; 1 mg 1^-1): 14.7%; % inhibition of growth in colony diameter in agar plates, Activity at 5 mg 1^-1 ([6]; 5 mg 1^-1): 99.8%
CCC(C)(C)C1=C(O)C(=O)c2ccccc2C1=O [Example 1, 2-(1,1-dimethylpropyl)-3-hydroxynaphthalene-1,4-dione]						MD (LD50) [1]: < 10 µg/insect; % inhibition of growth in colony diameter in agar plates, Activity at 100 mg 1^-1 (Rhizoctonia solani): 95%; % inhibition of growth in colony diameter in agar plates, Activity at 100 mg 1^-1 (Aspergillus niger): 63%; LC50 [2, 11]: 39 µg/mL (≈ 160 µM); mortality at 100 ppm [3, 12]: 11%; mortality at 250 ppm [3, 13]: 26%; PC (LD50) [4]: c. 10 µg/insect; LC50 [5, 14]: 19 µg/mL (≈ 77.8 µM); LC50 [7]: 84 µg/mL (≈ 344 µM); % inhibition of growth in colony diameter in agar plates, Activity at 100 mg 1^-1 [6]: 100%
CCC(C)(C)C1=C(OC(C)=O)C(=O)c2ccccc2C1=O [Example 2, 2-(1,1-dimethylpropyl)-3-ethanoyloxy-naphthalene-1,4-dione]						MD (LD50) [1]: < 10 µg/insect; % inhibition of growth in colony diameter in agar plates, Activity at 100 mg 1^-1 (Rhizoctonia solani): 81%; % inhibition of growth in colony diameter in agar plates, Activity at 100 mg 1^-1 (Aspergillus niger): 38%; LC50 [2, 11]: 64 µg/mL (≈ 224 µM); mortality at 40 ppm ([3]; strain S, 40 PPM, read-out: % mortality corrected for control data): 20%; mortality at 250 ppm [3, 13]: 27%; PX (LD50) [8]: c. 10 µg/insect; PC (LD50) [4]: c. 6.0 µg/insect; LC50 [5, 14]: 4.8 µg/mL (≈ 16.8 µM); LC50 [7]: 83 µg/mL (≈ 290 µM); % inhibition of growth in colony diameter in agar plates, Activity at 100 mg 1^-1 [6]: 89%
CC(C)(C)C1=C(O)C(=O)c2ccccc2C1=O [Example 3, 2-(t-butyl)-3-hydroxy-naphthalene-1,4-dione]						MD (LD50) [1]: c. 2.5 µg/insect; % inhibition of growth in colony diameter in agar plates, Activity at 100 mg 1^-1 (Rhizoctonia solani): 92%; % inhibition of growth in colony diameter in agar plates, Activity at 100 mg 1^-1 (Aspergillus niger): 61%; LC50 [2, 11]: 81 µg/mL (≈ 352 µM); mortality at 100 ppm [3, 12]: 27%; mortality at 250 ppm [3, 13]: 87%; PX (LD50) [8]: c. 8.0 µg/insect; PC (LD50) [4]: c. 6.0 µg/insect; LC50 [5, 14]: 8 µg/mL (≈ 34.7 µM); % inhibition of growth in colony diameter in agar plates, Activity at 100 mg 1^-1 [6]: 100%
C=CC(C)(C)C1=C(OC(=O)CCCCCCCCC)C(=O)c2ccccc2C1=O [Example 8]						LC50 [2, 11]: 630 µg/mL (≈ 1590 µM); PX (LD50) [8]: c. 0.1 µg/insect; PC (LD50) [4]: c. 8.0 µg/insect
C=CC(C)(C)C1=C(OCc2ccccc2)C(=O)c2ccccc2C1=O [Example 13]						MD (LD50) [1]: > 20 µg/insect; LC50 [2, 11]: > 1000 µg/mL; PX (LD50) [8]: c. 8.0 µg/insect; PC (LD50) [4]: > 20 µg/insect; LC50 [5, 14]: > 1000 µg/mL
CC1(C2=C(O)C(=O)c3ccccc3C2=O)C=CCCC1 (stereo not shown) [Example 31]	6 µg/insect	~50 µg/mL (≈ 186 µM)	5%	5 µg/insect	4.7 µg/mL (≈ 17.5 µM)	
CC1(CC2=C(O)C(=O)c3ccccc3C2=O)CCCCC1 [Example 32, 2-hydroxy-3-((1'methylcyclohexyl)-methyl)-naphthalene-1,4-dione]	3.6 µg/insect	2.9 µg/mL (≈ 10.2 µM)	50%	<2 µg/insect	3.6 µg/mL (≈ 12.7 µM)	
CC(=O)OC1=C(CC2(C)CCCCC2)C(=O)c2ccccc2C1=O [Example 33, 2-acetoxy-3-((1'-methylcyclohexyl)-methyl)-naphthalene-1,4-dione]	5.7 µg/insect	2.3 µg/mL (≈ 7.05 µM)	30%	2.8 µg/insect	5.1 µg/mL (≈ 15.6 µM)	
CC(C)(C)CCCCC1=C(O)C(=O)c2ccccc2C1=O [Example 38, 2-(5,5-dimethylhexyl)-3-hydroxy-naphthalene-1,4-dione]	5.3 µg/insect	3.5 µg/mL (≈ 12.2 µM)	~100%	c8 µg/insect	~60 µg/mL (≈ 210 µM)	
CC(C)(C)CCCCCC1=C(O)C(=O)c2ccccc2C1=O [Example 39]	c5 µg/insect	9.6 µg/mL (≈ 32 µM)	~100%		21 µg/mL (≈ 69.9 µM)	
CC(C)(C)CCCCCCC1=C(O)C(=O)c2ccccc2C1=O [Example 40]	c5 µg/insect	5 µg/mL (≈ 15.9 µM)	~100%		13 µg/mL (≈ 41.3 µM)	
CC(C)(C)C=CCCCCC1=C(O)C(=O)c2ccccc2C1=O [Example 44, 2-(7,7-dimethyloct-5-enyl)-3-hydroxy-naphthalene-1,4-dione]	c10 µg/insect	4.3 µg/mL (≈ 13.8 µM)	~100%		~100 µg/mL (≈ 320 µM)	
CC(=O)OC1=C(C(C)(C)C)C(=O)c2ccccc2C1=O [Example 46]	2.3 µg/insect	~500 µg/mL (≈ 1840 µM)	~60%	c15 µg/insect		
CC(=O)OC1=C(CCC(C)(C)C)C(=O)c2ccccc2C1=O [Example 47, 2-ethanoyloxy-3-(3,3-dimethylbutyl)-naphthalene-1,4-dione]	2.2 µg/insect	~20 µg/mL (≈ 66.6 µM)	~100%	c1 µg/insect	2.1 µg/mL (≈ 6.99 µM)	
CC(=O)OC1=C(CCCCCCC=CCC(C)(C)C)C(=O)c2ccccc2C1=O [Example 49, 2-ethanoyoxy-3-(10,10-dimethylundecan-7-enyl)-naphthalene-1,4-dione]	c18 µg/insect	2.3 µg/mL (≈ 5.8 µM)	~15%	c10 µg/insect		
CCCN(CCOc1c(Cl)cc(Cl)cc1Cl)C(=O)n1ccnc1 [Prochloraz, prochloraz, reference compound]						% inhibition of growth in colony diameter in agar plates, Activity at 1 mg 1^-1 (Aspergillus niger; 1 mg 1^-1): 97.8%
